Test results published in US6566409B1, “Lock and key micelles” (University of South Florida, priority 1994, dated 2003).

Test: Solubility of barbituric acid in CD3CN, free and with bisamidopyridine dendrimers
Assay type: physicochemical
From the text: Chemical shift changers for the complexed NH moieties, even in this competing solvent, corresponded to ca. 0.1 ppm for both generation dendrimers.

O=C1CC(=O)NC(=O)N1 [barbituric acid]
solubility in CD3CN (free): sparingly soluble
solubility in CD3CN in the presence of the bisamidopyridine dendrimers (with bisamidopyridine dendrimers): freely soluble to the limit of complementary complexation
